Results taken from ChEMBL document CHEMBL1201862, “PubChem BioAssay data set” (2004).
Activity calls are given as the source filed them.

How the values were obtained:
[1] = biological target: T1, Neuropeptides B/W receptor type 1 (Homo sapiens, UniProt P48145); test: Fluorescence-based dose response cell-based high throughput screening assay to identify antagonists of the G-protein coupled receptor 7 (GPR7). [Related pubchem assays: 1952 (Screening assay (GPR7 antagonists).), 1880 (Summary AID.)]; assay type: functional
T1 sequence (P48145 whole entry): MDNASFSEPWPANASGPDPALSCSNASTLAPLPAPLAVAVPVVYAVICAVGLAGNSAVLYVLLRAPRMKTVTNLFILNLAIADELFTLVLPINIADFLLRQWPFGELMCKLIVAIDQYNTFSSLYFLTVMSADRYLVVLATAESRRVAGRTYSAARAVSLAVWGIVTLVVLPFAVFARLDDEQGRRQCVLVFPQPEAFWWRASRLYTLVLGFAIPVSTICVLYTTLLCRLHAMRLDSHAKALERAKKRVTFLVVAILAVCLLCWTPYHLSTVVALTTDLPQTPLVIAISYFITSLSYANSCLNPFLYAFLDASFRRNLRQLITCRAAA

[2] = biological target: Melanin-concentrating hormone receptor 1 (Homo sapiens, UniProt Q99705); test: Fluorescence-based counterscreen for antagonists of the G-protein coupled receptor 7 (GPR7): cell-based high throughput dose response assay to identify antagonists of the melanin-concentrating hormone receptor 1 (MCHR1).; assay type: functional
Cytochrome P450 3A4 = Cytochrome P450 3A4 (Homo sapiens, UniProt P08684);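 note: CYP3A4 tested as one member of a cytochrome P450 panel screen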
[3] = Trypanosoma cruzi growth suppression in host cells – NIH3T3 host cells, beta-gal luminescence, confirmation (AID 2044); assay type: functional, cell-based;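 note: intracellular parasites grown in NIH/3T3 mouse fibroblasts as host cells; luminescent beta-galactosidase reporter signal from transgenic T. cruzi replicating inside host cells; inhibitors lower the luminescence signal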
[4] = microbe, parasite or virus in culture; assay type: functional; settings: Mycobacterium tuberculosis
[5] = NIH3T3 cell viability loss – ATP luminescence, mouse fibroblasts, counter-screen, dose response (AID 2010); assay type: functional, cell-based;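 note: cells exposed to compound for about 90 hours before reading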
[6] = THP-1 cell cytotoxicity, dose response, cytotoxicity control for non-replicating M. tuberculosis project (AID 489025); assay type: functional
[7] = HepG2 cell cytotoxicity, dose response, cytotoxicity control for non-replicating M. tuberculosis project (AID 489018); assay type: functional; settings: Mycobacterium tuberculosis
[8] = Vero E6 cell cytotoxicity, dose response, cytotoxicity control for non-replicating M. tuberculosis project, secondary assay (AID 492998); assay type: functional, VeroE6; settings: Vero C1008
[9] = biological target: T2, Heat shock factor protein 1 (Mus musculus, UniProt P38532); test: enhancement of HSF1-driven luciferase signal – cell-based, NIH3T3, luminescence, dose retest, confirmation (AID 435004); assay type: functional;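 note: stress induced by proteasome inhibitor MG132 added 30 min after compound; luciferase reporter driven by HSF1 response element in NIH3T3 cells; actives raise luminescence as potentiators of the MG132 stress response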
T2 sequence (P38532 whole entry): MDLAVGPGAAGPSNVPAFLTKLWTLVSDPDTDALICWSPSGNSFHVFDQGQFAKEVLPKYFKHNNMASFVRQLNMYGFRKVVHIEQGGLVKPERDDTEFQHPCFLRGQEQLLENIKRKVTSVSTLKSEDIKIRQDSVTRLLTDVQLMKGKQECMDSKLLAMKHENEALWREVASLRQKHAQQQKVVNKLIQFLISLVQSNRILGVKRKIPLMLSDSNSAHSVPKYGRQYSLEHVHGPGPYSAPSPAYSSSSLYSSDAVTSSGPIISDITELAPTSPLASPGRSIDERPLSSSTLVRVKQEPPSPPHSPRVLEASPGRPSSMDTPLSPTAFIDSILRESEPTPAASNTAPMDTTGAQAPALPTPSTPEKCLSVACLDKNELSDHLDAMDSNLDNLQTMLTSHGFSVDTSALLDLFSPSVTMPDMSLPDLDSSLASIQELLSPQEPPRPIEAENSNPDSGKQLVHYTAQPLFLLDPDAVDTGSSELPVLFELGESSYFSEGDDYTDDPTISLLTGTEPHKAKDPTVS

[10] = biological target: T3, Microphthalmia-associated transcription factor (Homo sapiens, UniProt O75030); test: reducers of TRPM1 reporter luminescence, concentration series – cell-based, SK-MEL-5, cherry-picked, set 3, MITF inhibitor project, dose response (AID 493073); assay type: functional;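 note: SK-MEL-5 melanoma cells with luciferase driven by the MITF target TRPM1 promoter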
T3 sequence (O75030 whole entry): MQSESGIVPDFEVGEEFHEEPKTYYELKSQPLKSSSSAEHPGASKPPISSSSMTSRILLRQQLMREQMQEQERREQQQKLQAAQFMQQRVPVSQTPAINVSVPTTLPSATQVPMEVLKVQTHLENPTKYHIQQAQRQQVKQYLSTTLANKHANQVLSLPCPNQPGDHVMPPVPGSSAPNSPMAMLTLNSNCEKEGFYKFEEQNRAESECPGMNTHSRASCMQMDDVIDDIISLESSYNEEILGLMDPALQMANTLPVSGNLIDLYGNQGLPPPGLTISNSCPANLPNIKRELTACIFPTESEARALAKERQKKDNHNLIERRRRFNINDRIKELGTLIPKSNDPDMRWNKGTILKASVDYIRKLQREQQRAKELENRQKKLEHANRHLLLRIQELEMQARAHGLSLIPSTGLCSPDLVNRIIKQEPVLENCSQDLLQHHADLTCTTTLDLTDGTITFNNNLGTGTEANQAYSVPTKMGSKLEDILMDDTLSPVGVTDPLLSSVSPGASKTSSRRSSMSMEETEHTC

cells = assay type: functional
A-375 = test: MITF: Counter assay: A375 proliferation Measured in Cell-Based System Using Plate Reader - 2084-03_Inhibitor_Dose_DryPowder_Activity. [Related pubchem assays (depositor defined):AID488944]; assay type: functional; settings: Homo sapiens
[11] = test system: Streptococcus sp. 'group A'; test: Streptococcus pyogenes SK(-)GAS viability under kanamycin – luminescence, BacTiterGlo, confirmation, counter-screen for streptokinase expression inhibitor project, dose response (AID 1900); assay type: functional, organism-based
Streptokinase A = biological target: T4, Streptokinase A (Streptococcus pyogenes serotype M1, UniProt P10520); test: viability-normalized secreted streptokinase activity reduction – plasminogen activation absorbance, OD405, dose response (AID 1914); assay type: functional, Streptococcus pyogenes M1 GAS;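 note: secreted streptokinase activity via plasminogen activation per viability signal from cell pellet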
T4 sequence (P10520 whole entry): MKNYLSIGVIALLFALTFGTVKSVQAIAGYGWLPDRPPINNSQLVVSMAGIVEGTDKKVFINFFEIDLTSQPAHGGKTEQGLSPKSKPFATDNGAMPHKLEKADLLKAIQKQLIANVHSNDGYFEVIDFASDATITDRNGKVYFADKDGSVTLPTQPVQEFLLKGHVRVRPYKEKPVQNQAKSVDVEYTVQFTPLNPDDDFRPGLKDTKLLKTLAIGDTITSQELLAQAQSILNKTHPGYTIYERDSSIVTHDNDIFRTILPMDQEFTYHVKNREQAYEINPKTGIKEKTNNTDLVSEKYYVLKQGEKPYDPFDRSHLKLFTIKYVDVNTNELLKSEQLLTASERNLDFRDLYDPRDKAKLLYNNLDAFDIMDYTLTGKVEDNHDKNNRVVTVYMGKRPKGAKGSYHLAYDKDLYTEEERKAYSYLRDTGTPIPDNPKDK

Streptococcus = test: GAS UMAA2166 growth inhibition – luminescence, BacTiterGlo, counter-screen for streptokinase expression inhibitor project, dose response (AID 1915); assay type: functional, organism-based;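 note: potency for reduction of bacterial viability or growth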
HEK293 [12] = test: cells; settings: Homo sapiens
HEK293 [13] = test: cells; settings: Homo sapiens; remark: listed apart in the source
Cytochrome P450 2C9 = Cytochrome P450 2C9 (Homo sapiens, UniProt P11712)
Escherichia coli = test: microbe, parasite or virus in culture
[14] = biological target: T5, Replicative DNA helicase DnaB (Mycobacterium tuberculosis, UniProt P9WMR3); test: DnaB intein splicing inhibitors, dose response, biochemical, cell-free fluorescence (AID 449749); assay type: functional
T5 sequence (P9WMR3 whole entry): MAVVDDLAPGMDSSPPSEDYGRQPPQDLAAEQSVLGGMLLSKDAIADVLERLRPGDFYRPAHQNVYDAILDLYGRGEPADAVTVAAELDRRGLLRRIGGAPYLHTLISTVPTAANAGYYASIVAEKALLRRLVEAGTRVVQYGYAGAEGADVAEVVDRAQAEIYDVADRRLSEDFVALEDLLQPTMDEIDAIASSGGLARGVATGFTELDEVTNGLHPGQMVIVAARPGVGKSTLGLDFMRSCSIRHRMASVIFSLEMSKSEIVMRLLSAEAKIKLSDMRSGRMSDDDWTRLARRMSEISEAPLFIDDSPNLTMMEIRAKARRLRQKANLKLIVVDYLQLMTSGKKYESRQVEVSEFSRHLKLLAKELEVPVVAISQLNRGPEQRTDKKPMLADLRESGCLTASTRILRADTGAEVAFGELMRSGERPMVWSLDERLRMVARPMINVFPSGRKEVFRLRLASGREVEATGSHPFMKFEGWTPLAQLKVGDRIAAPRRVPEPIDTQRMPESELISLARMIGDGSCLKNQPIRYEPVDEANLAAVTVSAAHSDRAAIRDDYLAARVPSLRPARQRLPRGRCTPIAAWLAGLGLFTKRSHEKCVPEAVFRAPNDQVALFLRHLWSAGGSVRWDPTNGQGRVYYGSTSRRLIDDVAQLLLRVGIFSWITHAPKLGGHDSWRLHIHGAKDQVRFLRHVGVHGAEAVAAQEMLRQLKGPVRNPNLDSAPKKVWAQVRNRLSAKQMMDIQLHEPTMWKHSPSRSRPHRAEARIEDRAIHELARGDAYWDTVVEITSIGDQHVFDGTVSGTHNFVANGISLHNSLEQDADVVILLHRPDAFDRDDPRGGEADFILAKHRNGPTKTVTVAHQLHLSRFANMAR

Protein RecA = biological target: T6, Protein RecA (Mycobacterium tuberculosis, UniProt P9WHJ3); test: Fluorescence Cell-Free Homogeneous Dose Retest to Identify Inhibitors of RecA-Intein Splicing Activity. [Related pubchem assays (depositor defined):AID2097, AID2223, AID489010, AID492950]; assay type: functional
T6 sequence (P9WHJ3 whole entry): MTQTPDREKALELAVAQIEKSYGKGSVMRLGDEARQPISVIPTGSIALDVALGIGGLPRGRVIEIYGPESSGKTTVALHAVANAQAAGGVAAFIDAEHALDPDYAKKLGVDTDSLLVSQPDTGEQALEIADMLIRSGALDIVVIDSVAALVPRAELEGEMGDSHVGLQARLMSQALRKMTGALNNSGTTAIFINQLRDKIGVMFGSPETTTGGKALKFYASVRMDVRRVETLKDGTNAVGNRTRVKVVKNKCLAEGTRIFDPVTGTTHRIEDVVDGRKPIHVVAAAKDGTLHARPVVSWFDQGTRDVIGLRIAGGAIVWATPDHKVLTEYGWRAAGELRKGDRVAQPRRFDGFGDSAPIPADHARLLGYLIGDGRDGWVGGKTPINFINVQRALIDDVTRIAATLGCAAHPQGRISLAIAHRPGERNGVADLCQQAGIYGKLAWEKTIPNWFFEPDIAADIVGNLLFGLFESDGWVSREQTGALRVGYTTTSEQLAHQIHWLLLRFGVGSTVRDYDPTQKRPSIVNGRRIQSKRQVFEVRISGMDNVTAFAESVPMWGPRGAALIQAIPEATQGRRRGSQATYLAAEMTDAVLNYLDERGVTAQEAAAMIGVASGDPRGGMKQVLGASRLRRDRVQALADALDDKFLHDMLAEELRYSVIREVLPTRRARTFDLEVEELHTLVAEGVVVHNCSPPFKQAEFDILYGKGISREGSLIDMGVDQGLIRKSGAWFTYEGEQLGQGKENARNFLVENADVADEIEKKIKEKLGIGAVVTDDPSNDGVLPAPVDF

[15] = viability loss in HepG2 hepatoma cells – cell-based, ATP luminescence, cherry-pick, activator set 2, cytotoxicity control, dose response (AID 1053143); assay type: functional

Cytochrome P450 3A4, sequence (P08684 whole entry): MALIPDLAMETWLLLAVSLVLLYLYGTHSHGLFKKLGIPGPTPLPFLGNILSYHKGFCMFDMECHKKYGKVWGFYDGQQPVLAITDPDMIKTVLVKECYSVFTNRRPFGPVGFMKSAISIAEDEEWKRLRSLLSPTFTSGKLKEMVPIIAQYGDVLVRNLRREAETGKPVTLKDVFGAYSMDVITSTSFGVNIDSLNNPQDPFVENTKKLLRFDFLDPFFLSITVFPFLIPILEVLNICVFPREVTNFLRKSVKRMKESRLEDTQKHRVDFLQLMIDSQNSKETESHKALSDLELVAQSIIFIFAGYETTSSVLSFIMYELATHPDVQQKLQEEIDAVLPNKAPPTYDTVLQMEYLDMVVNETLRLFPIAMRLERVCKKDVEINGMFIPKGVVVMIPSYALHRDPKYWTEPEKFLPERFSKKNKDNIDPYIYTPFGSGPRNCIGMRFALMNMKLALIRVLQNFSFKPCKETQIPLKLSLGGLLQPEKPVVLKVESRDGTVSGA
Melanin-concentrating hormone receptor 1, sequence (Q99705 whole entry): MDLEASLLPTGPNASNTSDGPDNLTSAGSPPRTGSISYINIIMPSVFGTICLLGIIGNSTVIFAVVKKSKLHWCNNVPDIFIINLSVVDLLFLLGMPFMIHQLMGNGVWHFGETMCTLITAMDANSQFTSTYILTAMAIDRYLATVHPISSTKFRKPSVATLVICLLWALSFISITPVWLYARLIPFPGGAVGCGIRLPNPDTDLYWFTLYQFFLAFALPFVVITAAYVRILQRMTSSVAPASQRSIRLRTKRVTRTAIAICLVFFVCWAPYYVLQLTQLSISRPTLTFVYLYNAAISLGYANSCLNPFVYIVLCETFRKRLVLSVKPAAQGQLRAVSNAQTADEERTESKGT
Cytochrome P450 2C9, sequence (P11712 whole entry): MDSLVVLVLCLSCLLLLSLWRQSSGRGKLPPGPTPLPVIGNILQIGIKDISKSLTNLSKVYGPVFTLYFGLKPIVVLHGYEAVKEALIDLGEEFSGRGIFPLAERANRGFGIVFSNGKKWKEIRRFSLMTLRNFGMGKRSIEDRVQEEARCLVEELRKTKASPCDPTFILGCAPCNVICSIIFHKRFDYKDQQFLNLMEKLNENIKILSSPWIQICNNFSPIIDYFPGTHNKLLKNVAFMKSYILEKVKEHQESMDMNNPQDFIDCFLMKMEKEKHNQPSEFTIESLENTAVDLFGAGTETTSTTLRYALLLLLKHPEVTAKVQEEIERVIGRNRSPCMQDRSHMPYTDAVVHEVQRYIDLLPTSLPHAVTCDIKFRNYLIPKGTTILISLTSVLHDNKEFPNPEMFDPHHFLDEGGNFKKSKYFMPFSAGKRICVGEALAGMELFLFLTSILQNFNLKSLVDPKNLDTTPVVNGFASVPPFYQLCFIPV

## Cc1ccccc1Oc1ncnc2oc(-c3ccccc3)cc12
[1]
  IC50: > 43.8 µM (not active)
[2]
  IC50: 24.3 µM (not active)
Cytochrome P450 3A4
  AC50: inconclusive

## CC(C)(C)c1ccc(Cn2c(=N)n(CC(O)c3ccco3)c3ccccc32)cc1 (stereo not given)
[3]
  EC50: 2.12 µM (active)
[4]
  CC50: 11.9 µM (active)
[5]
  EC50: > 60 µM (not active)
[6]
  CC50: 9.05 µM (active)
[7]
  CC50: 9.26 µM (active)
[8]
  CC50: 15.7 µM (active)
[9]
  EC50: > 260 µM (inactive)
[10]
  AC50: 11.8 µM (active)
cells
  IC50: 22 µM (active)
A-375
  AC50: 18.6 µM (active)

## Fc1ccc(-n2cc(-c3ccccc3)c3c(S)ncnc32)cc1
[11]
  EC50: 12.1 µM (active)
Streptokinase A
  EC50: > 150 µM (not active)
Streptococcus
  EC50: > 150 µM (not active)
HEK293 [12]
  EC50: > 59.6 µM (inactive)
HEK293 [13]
  EC50: > 59.6 µM (inactive)

## CCOC(=O)N1CCN(CC(=O)c2ccc3c(c2)CCN3)CC1
Cytochrome P450 2C9
  AC50: 17.8 µM (inconclusive)
Cytochrome P450 3A4
  AC50: inconclusive

## O=C(Nc1ccccc1F)c1ccc([N+](=O)[O-])s1
[3]
  EC50: 0.614 µM (active)
[5]
  EC50: > 30 µM (not active)
[6]
  CC50: 28.8 µM (active)
[8]
  CC50: > 20 µM (active)
cells
  IC50: 4.91 µM (active)
Escherichia coli
  AC50: 27.5 µM (active)

## CO[C@H]1C=CO[C@@]2(C)Oc3c(C)c(O)c4c(O)c(c(C=NN5CCN(C)CC5)c(O)c4c3C2=O)NC(=O)C(C)=CC=C[C@H](C)[C@H](O)[C@@H](C)[C@@H](O)[C@@H](C)[C@H](OC(C)=O)[C@@H]1C
[11]
  EC50: < 0.06 µM (active)
Streptococcus
  EC50: < 0.06 µM (active)
Escherichia coli
  AC50: 14.8 µM (active)

## COc1ccccc1NC(=O)c1cnc(SCC(=O)NCC2CCCO2)n(C)c1=O (stereo not given)
[10]
  AC50: 8.88 µM (active)
[14]
  AC50: 9.19 µM (active)
Protein RecA
  EC50: 10.8 µM (active)
[15]
  AC50: 42.4 µM (active)
HEK293 [12]
  EC50: > 59.6 µM (inactive)
HEK293 [13]
  EC50: > 59.6 µM (inactive)
